Laboratory results taken from article PMC8176454, “Synthesis and Assessment of Novel Probes for Imaging Tau Pathology in Transgenic Mouse and Rat Models” (ACS Chemical Neuroscience, 2021).
Read-outs that look alike come from different tables or passages of the source.

Key:
[1] = system: tau aggregates in DRG neurons from P301S tau mice; test: Fluorescence binding to cultured DRG neurons from P301S tau transgenic mice; format: cell-based, mouse; details: for IC50: Mus musculus, DRG neuron
Procedure: P301S tau mice with aggregated tau in the brain also express aggregated tau in DRG neurons.[24]−[26] […] To estimate the apparent affinity of LM229 to tau aggregates directly in living neurons, we imaged live neurons after 20 min incubation with various concentrations of LM229 (Figure 4A). […] LM229 binding was specific to neurons with aggregated tau, as detected with the AT100 antibody[18],[22],[23],[26] (Figure 4D). […] Although PBB3 also bound to DRG neurons with tau aggregates at 30–100 μM, it was not possible to derive an IC50 value because of its low affinity in this assay (Supporting Information, Figure S2). […] The shift from nanomolar to micromolar affinity between binding to heparin tau fibrils and tau aggregates in P301S tau neurons may reflect the different environment and assay conditions or the different conformations that tau aggregates assume in neurons compared to heparin–tau complexes.[27]
Neurons were prepared from phenotypic end stage 5–7 month old P301S tau mice and cultured as described previously.[24] For live staining, neurons cultured for 2 days were washed in PBS and incubated with various concentrations of LM229 for 20 min at room temperature. After three washes in PBS, neurons were imaged on a Leica DMI 4000B microscope using a DFC3000 G camera and application suite 4.0.0.11706. The dead cell stain Propidium iodide (1 μg/mL) was added to ensure that only live cells were imaged. Phase contrast images were taken to show viable neurons. For fixed cell staining, neurons were fixed for 20 min at room temperature in 4% paraformaldehyde, washed in PBS, and permeabilized in PBS containing 0.3% Triton X-100. LM299 was added as described for live cells, and cells were probed with AT100 (1:1000, MN1060) followed by anti-mouse AlexaFluor568 secondary antibody. Cultures were co-stained with the nuclear dye DAPI (blue) to reveal total cells. […]
Binding to cultured neurons from P301S tau transgenic mice
DRG were incubated with the indicated concentrations of LM229 or PBB3 for 20 minutes at room temperature, washed 3 times in PBS, and imaged on a Leica DMI 4000B microscope using a Leica DFC3000 G camera and the Leica application suite 4.0.0.11706. Fluorescence intensity was measured in 10-16 neurons each from 3 independent cultures using Image J (imagej.nih.gov/ij/). Results shown are mean ± SD. Non linear least squares curve fitting was applied using http://faculty.gvsu.edu/carlsont/232lab/nonlin2.html. No Km value was […]
Figure S2: Binding of LM229 and PBB3 to DRG neurons with tau aggregates […]
(1 picture or pasted object on this page, not shown here)

[2] = molecular target: T1, tau inclusions in brain sections from transgenic P301S tau mice (human 0N4R tau) (Homo sapiens, UniProt P10636, P618S); test: In vitro fluorescence microscopy of binding to transgenic P301S tau mouse brain sections
T1 construct: from tissue; host or cells: brain of transgenic P301S tau mice (C57Bl/6 background)
Procedure: We then screened all of the compounds for their binding to tau inclusions in brain sections from transgenic P301S tau mice, which express the shortest isoform (0N4R) of human 4-repeat (4R) tau,[18] using their autofluorescence properties to rapidly analyze their binding.
Mice were perfused with PBS followed by 4% PFA. Following 24 h in 4% PFA, the brains were transferred to 20% sucrose prior to being embedded in OCT for cryo-sectioning. Sections (14 μm) were incubated with 50 μM LM229 or PBB3 for 1 h, washed in PBS + 0.1% Triton X-100, and cover-slipped with Vectashield mounting medium. Sections were imaged using a Leica DM6000 microscope. Mouse monoclonal AT8 (MN1020) or AT100 (MN1060) were from ThermoFisher and used at 1:1000. Anti-mouse secondary antibody was conjugated to AlexaFluor647.

[3] = molecular target: T2, heparin-induced synthetic recombinant tau fibrils (tau-441 human) (Homo sapiens, UniProt P10636); test: Fluorescence quenching assay of compound binding to heparin-induced synthetic recombinant tau fibrils; details: read-out: Kd of compound binding to heparin-induced synthetic tau fibrils determined by fluorimetry
T2 construct: purchased Eurogentec
Procedure: All compounds were assessed for their ability to bind to synthetic recombinant tau fibrils using a fluorescence quenching assay[20] […] Binding affinities for some compounds (141, 164, 166, 169, 171, and 207) could not be assessed with this assay because of negligible changes in fluorescence intensity. […] This compound was then selected for further characterization and development.
All reagents and solvents were used as supplied or purified using standard procedures as necessary. Analytical separation was conducted on an Ultimate 3000 HPLC system (Thermo Scientific). [^11C]CO2 was produced via the ^14N(p,α) nuclear reaction using GE PETtrace cyclotron applying 16.5 MeV protons onto 0.5% oxygen in nitrogen gas. [^11C]Methyl iodide was synthesized on a GE Medical Systems MeI MicroLab. A F-4500 FL spectrophotometer (Chemical Engineering department, University of Cambridge) was used to do fluorescence scan of all of the compounds mixed with tau fibrils. Excitation wavelength was 365 nm, and emission was scanned from 400 to 600 nm. With parameters, setting excitation slit was 5.0 nm, emission slit was 20.0 nm, PMT voltage was 950 V, and response was 0.5 s.
Monomeric tau (tau-441 human) lyophilized powder was obtained from Eurogentec. Tau monomers (100 μM) were prepared in 20 mM BES buffer (pH 7.4 with 25 mM NaCl and 2 mM dithiothreitol and incubated at 56 °C for 10 min. After being cooled to room temperature in a water bath, heparin (25 μM) and a protease inhibitor mix were added and incubated at 37 °C for 10 days. […]
Binding affinity of all compounds with tau fibrils […]
All other compounds binding affinit ies towards tau fibrils
were then tested by fluorescent binding assay. […]

T1 sequence (P10636 1-383 isoform P10636-6 P243S): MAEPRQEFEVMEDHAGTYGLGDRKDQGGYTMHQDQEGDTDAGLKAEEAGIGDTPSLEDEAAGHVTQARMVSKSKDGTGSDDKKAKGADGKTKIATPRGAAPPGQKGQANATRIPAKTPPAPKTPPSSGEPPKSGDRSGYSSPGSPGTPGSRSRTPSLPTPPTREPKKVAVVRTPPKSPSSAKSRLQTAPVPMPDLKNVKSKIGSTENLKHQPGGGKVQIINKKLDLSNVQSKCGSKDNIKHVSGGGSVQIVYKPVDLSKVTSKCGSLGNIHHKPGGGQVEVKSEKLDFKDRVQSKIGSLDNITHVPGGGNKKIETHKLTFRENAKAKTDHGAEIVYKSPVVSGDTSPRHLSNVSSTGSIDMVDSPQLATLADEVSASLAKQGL
T2 sequence (P10636 1-441 isoform P10636-8): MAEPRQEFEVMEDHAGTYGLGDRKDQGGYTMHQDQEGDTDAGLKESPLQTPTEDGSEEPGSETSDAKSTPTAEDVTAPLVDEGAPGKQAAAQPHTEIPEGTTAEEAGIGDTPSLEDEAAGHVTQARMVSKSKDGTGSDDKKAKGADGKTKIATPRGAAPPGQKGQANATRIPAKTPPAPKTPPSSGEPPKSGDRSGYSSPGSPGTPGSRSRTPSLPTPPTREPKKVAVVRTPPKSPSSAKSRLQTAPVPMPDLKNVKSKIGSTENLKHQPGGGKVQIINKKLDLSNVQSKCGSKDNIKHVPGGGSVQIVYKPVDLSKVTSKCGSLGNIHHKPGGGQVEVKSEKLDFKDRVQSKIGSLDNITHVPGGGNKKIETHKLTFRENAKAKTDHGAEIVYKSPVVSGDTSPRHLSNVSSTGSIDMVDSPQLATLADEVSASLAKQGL

Q: How did the “Retention of fluorescence in neurons after exposure and washes” value ([1]; 3 days after exposure) turn out when `CNc1ccc(/C=C/C=C/c2nc3cc(F)c(O)cc3s2)cn1` [LM229] was run?
A: The value was “still retained albeit to a lower intensity”.

Q: And the IC50 ([1]; 20 min, live DRG neurons, 20 min incubation, read-out: IC50, apparent affinity to tau aggregates in live neurons)?
A: Its IC50 is 2700 ± 700 nM.

Q: What about the IC50 ([1]; fixed DRG neurons, figure legend value, read-out: IC50, fixed neurons (Figure 4B)) of the same molecule?
A: The IC50 was 1670 ± 280 nM.

Q: And the IC50 ([1]; fixed, permeabilized DRG neurons, read-out: IC50, fixed and permeabilized neurons)?
A: The IC50 was 1700 ± 300 nM.

Q: What about the IC50 ([1]; live DRG neurons, figure legend value, read-out: IC50, live neurons (Figure 4B)) of the same molecule?
A: The IC50 was 2970 ± 730 nM.

Q: And the Cell permeability ([1]; live vs fixed/permeabilized DRG neurons)?
A: Its Cell permeability is “highly cell permeable”.

Q: And the “Binding to P301S tau mouse brain sections, 2 months of age” value ([2]; 2 months old mice)?
A: Its value is “Rare binding”.

Q: What about the “Binding to P301S tau mouse brain sections, 6 months of age” value ([2]; 6 months old mice) of the same molecule?
A: The value was “significant binding to large populations of neurons”.

Q: And the “Binding to tau inclusions in P301S tau mouse brain sections” value ([2]; autofluorescence, co-staining with AT8 and AT100)?
A: Its value is “intense, specific binding”.

Q: What about the “Binding to WT mouse brain sections” value ([2]; brainstem sections from WT animals) of the same molecule?
A: Its value is “No specific binding”.

Q: What about the Kd [3] of the same molecule?
A: The Kd was 3.6 nM.
